{"source": "patent US20260248756A1", "about": "“FAT COMPOSITION COMPRISING TRIBUTYRIN AND TRICAPROIN AND ITS USE IN MILK REPLACERS” (Nutreco IP Assets B.V., priority 2023, published 2026)", "origin": "cited, not measured here", "data": [{"smiles": "CCCC(=O)OCC(COC(=O)CCC)OC(=O)CCC", "note": "[tributyrin]", "values": [{"measurement": "total intake of solid feed", "setting": "postweaning, tributyrin up to 0.6 wt % of dry matter in CMR", "value": "increased total intake of solid feed"}, {"measurement": "body weight compared with calves not fed tributyrin", "setting": "weaning and postweaning period, 0.6 wt % of dry matter tributyrin in milk replacer", "value": "greater body weight"}]}]}
